Assay: Stability test in solution (pH 1.2 and pH 6.5)
Type: physicochemical
Conditions: 1 hour; for Compound's percent residue (%) pH 6.5: 20 mM phosphate buffer pH 6.5, 37° C.; for Compound's percent residue (%) pH 1.2: hydrochloric acid solution pH 1.2, 37° C.
Protocol: Test 2: Stability Test in Solution
A test to determine the stability of Inventive Compounds (I-A) or (I) in a hydrochloric acid solution (pH 1.2) and 20 mM phosphate buffer (pH 6.5) was conducted in accordance with the following method.
A compound was dissolved in a hydrochloric acid solution (pH 1.2) containing hydrochloric acid and sodium chloride or a 20 mM phosphate buffer (pH 6.5) containing disodium hydrogenphosphate, sodium dihydrogenphosphate and sodium chloride to prepare a solution with a concentration of about 50 ng/mL (near the saturated concentration when the compound was not dissolved). The solution was incubated at 37° C. for 1 hour and the compound's concentration before and after the incubation was quantified by high-performance liquid chromatography to calculate the percent residue of the compound. Compounds having low solubility were assessed as being not applicable.
The percent residues of representative compounds in the hydrochloric acid solution (pH 1.2) and the 20 mM phosphate buffer (pH 6.5) are shown in the following Table 2.

Compound | Compound's percent residue (%) pH 6.5 [%] | Compound's percent residue (%) pH 1.2 [%]
C[C@@H](OC(=O)C12CC3CC(CC(C3)C1)C2)OC(=O)[C@@]1(N)[C@H]2[C@@H](C[C@H]1OCc1ccc(F)cc1)[C@]2(F)C(=O)O [Example 4, (1R,2R,3R,5R,6R)-2-Amino-6-fluoro-3-[(4-fluorophenyl)methoxy]-2-({(1S)-1-[(tricyclo[3.3.1.1^3,7]decane-1-carbonyl)oxy]ethoxy}carbonyl)bicyclo[3.1.0]hexane-6-carboxylic acid] | 98 | 98
CCCO[C@@H]1C[C@@H]2[C@H]([C@]1(N)C(=O)OC(C)OC(=O)O[C@H]1C[C@@H](C)CC[C@@H]1C(C)C)[C@@]2(F)C(=O)O (single isomer, unassigned) [Example 15-B] | 103 | 100
N[C@]1(C(=O)OCOC(=O)C2CCCCC2)[C@H]2[C@@H](C[C@H]1OCc1ccc(F)cc1)[C@]2(F)C(=O)O [Example 37, (1R,2R,3R,5R,6R)-2-amino-2-({[(cyclohexanecarbonyl)oxy]methoxy}carbonyl)-6-fluoro-3-[(4-fluorophenyl)methoxy]bicyclo[3.1.0]hexane-6-carboxylic acid] | 96 | 102
C[C@H](OC(=O)C12CC3CC(CC(C3)C1)C2)OC(=O)[C@@]1(N)[C@H]2[C@@H](C[C@H]1OCc1ccc(F)c(F)c1)[C@]2(F)C(=O)O [Example 10, (1R,2R,3R,5R,6R)-2-Amino-3-[(3,4-difluorophenyl)methoxy]-6-fluoro-2-({(1R)-1-[(tricyclo[3.3.1.1^3,7]decane-1-carbonyl)oxy]ethoxy}carbonyl)bicyclo[3.1.0]hexane-6-carboxylic acid] | 107 | 104
CC(C)CCO[C@@H]1C[C@@H]2[C@H]([C@]1(N)C(=O)O[C@@H](C)OC(=O)C13CC4CC(CC(C4)C1)C3)[C@@]2(F)C(=O)O [Example 29, (1R,2R,3R,5R,6R)-2-amino-6-fluoro-3-(3-methylbutoxy)-2-({(1S)-1-[(tricyclo[3.3.1.1^3,7]decane-1-carbonyl)oxy]ethoxy}carbonyl)bicyclo[3.1.0]nexane-6-carboxylic acid] | 103 | 102
C[C@@H](OC(=O)C12CC3CC(CC(C3)C1)C2)OC(=O)[C@@]1(N)[C@H]2[C@@H](C[C@H]1OCc1ccc(Cl)cn1)[C@]2(F)C(=O)O [Example 26, (1R,2R,3R,5R,6R)-2-amino-3-[(5-chloropyridin-2-yl)methoxy]-6-fluoro-2-({(1S)-1-[(tricyclo[3.3.1.1^3,7]decane-1-carbonyl)oxy]ethoxy}carbonyl)bicyclo[3.1.0]hexane-6-carboxylic acid] | 94 | 97
CC(C)[C@@H]1CC[C@@H](C)C[C@H]1OC(=O)O[C@H](C)OC(=O)[C@@]1(N)[C@H]2[C@@H](C[C@H]1OCc1ccc(F)cc1)[C@]2(F)C(=O)O [Example 1, (1R,2R,3R,5R,6R)-2-amino-6-fluoro-3-[(4-fluorophenyl)methoxy]-2-({(1R)-1-[({[(1R,2S,5R)-5-methyl-2-(propan-2-yl)cyclohexyl]oxy}carbonyl)oxy]ethoxy}carbonyl)bicyclo[3.1.0]hexane-6-carboxylic acid] | 103 | 109
C[C@@H](OC(=O)C12CC3CC(CC(C3)C1)C2)OC(=O)[C@@]1(N)[C@H]2[C@@H](C[C@H]1OCc1cccc(F)c1)[C@]2(F)C(=O)O [Example 23, (1R,2R,3R,5R,6R)-2-amino-6-fluoro-3-[(3-fluorophenyl)methoxy]-2-({(1S)-1-[(tricyclo[3.3.1.1^3,7]decane-1-carbonyl)oxy]ethoxy}carbonyl)bicyclo[3.1.0]hexane-6-carboxylic acid] | 100 | 101
Cc1ccc(CO[C@@H]2C[C@@H]3[C@H]([C@]2(N)C(=O)O[C@@H](C)OC(=O)O[C@@H]2C[C@H](C)CC[C@H]2C(C)C)[C@@]3(F)C(=O)O)cc1 [Example 34, (1R,2R,3R,5R,6R)-2-amino-6-fluoro-3-[(4-methylphenyl)methoxy]-2-({(1R)-1-[({[(1R,2S,5R)-5-methyl-2-(propan-2-yl)cyclohexyl]oxy}carbonyl)oxy]ethoxy}carbonyl)bicyclo[3.1.0]hexane-6-carboxylic acid] | 94 | 100
CC(OC(=O)OC1CCCCC1)OC(=O)[C@@]1(N)[C@H]2[C@@H](C[C@H]1OCc1ccc(F)cc1)[C@]2(F)C(=O)O (stereo partly drawn) [Example 5, (1R,2R,3R,5R,6R)-2-Amino-2-[(1-{[(cyclohexyloxy)carbonyl]oxy}ethoxy)carbonyl]-6-fluoro-3-[(4-fluorophenyl)methoxy]bicyclo[3.1.0]hexane-6-carboxylic acid] | 98 | 100
N[C@]1(C(=O)OCOC(=O)c2ccccc2)[C@H]2[C@@H](C[C@H]1OCc1ccc(F)cc1)[C@]2(F)C(=O)O [Example 36, (1R,2R,3R,5R,6R)-2-amino-2-{[(benzoyloxy)methoxy]carbonyl}-6-fluoro-3-[(4-fluorophenyl)methoxy]bicyclo[3.1.0]hexane-6-carboxylic acid] | 99 | 100
CC(OC(=O)O[C@H]1C(C)(C)[C@H]2CC[C@]1(C)C2)OC(=O)[C@@]1(N)[C@H]2[C@@H](C[C@H]1OCc1ccc(F)cc1)[C@]2(F)C(=O)O (stereo partly drawn) [Example 21, (1R,2R,3R,5R,6R)-2-Amino-6-fluoro-3-[(4-fluorophenyl)methoxy]-2-({1-[({[(1R,2R,4S)-1,3,3-trimethylbicyclo[2.2.1]heptan-2-yl]oxy}carbonyl)oxy]ethoxy}carbonyl)bicyclo[3.1.0]hexane-6-carboxylic acid] | 98 | 101
C[C@@H](OC(=O)C12CC3CC(CC(C3)C1)C2)OC(=O)[C@@]1(N)[C@H]2[C@@H](C[C@H]1OCc1ccc(Cl)nc1)[C@]2(F)C(=O)O [Example 27, (1R,2R,3R,5R,6R)-2-amino-3-[(6-chloropyridin-3-yl)methoxy]-6-fluoro-2-({(1S)-1-[(tricyclo[3.3.1.1^3,7]decane-1-carbonyl)oxy]ethoxy}carbonyl)bicyclo[3.1.0]hexane-6-carboxylic acid] | 101 | 100
CC(C)[C@@H]1CC[C@@H](C)C[C@H]1OC(=O)O[C@@H](C)OC(=O)[C@@]1(N)[C@H]2[C@@H](C[C@H]1OCc1ccc(F)c(F)c1)[C@]2(F)C(=O)O [Example 9, (1R,2R,3R,5R,6R)-2-Amino-3-[(3,4-difluorophenyl)methoxy]-6-fluoro-2-({(1S)-1-[({[(1R,2S,5R)-5-methyl-2-(propan-2-yl)cyclohexyl]oxy}carbonyl)oxy]ethoxy}carbonyl)bicyclo[3.1.0]hexane-6-carboxylic acid] | 116 | 115

From patent US10689327B2, “Prodrug amino acid derivative” (TAISHO PHARMACEUTICALS CO., LTD., priority 2016, dated 2020)
